Several values for one entry are separate records, joined by “and”; a condition that tells them apart may be missing. Equal values may be shown once. Toxic doses and inconclusive results are not listed.
Tested on: L1210 leukemia ip in BDF1 mice, survival T/C
Experiment: NCI In Vivo Anticancer Drug Screen. Data for tumor model L1210 Leukemia (intraperitoneal) in B6D2F1 (BDF1) mice
Conditions: higher = longer survival
Outline: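 Each compound was tested against a transplantable tumor grown in mice. The endpoint was survival, with treated animals benchmarked against vehicle controls as a simple ratio.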

[1] = endpoint: mean survival time, dose: 25.0 mg/kg/injection, schedule: Q01DX009 (ip), vehicle: Klucel (hydroxypropylcellulose) (HPC)
[2] = endpoint: mean survival time, dose: 50.0 mg/kg/injection, schedule: Q01DX009 (ip), vehicle: Klucel (hydroxypropylcellulose) (HPC)
[3] = endpoint: mean survival time, dose: 100.0 mg/kg/injection, schedule: Q01DX009 (ip), vehicle: Klucel (hydroxypropylcellulose) (HPC)

Question: What does the source list for `N[C@H](C(=O)O)[C@H]1ON=C(Cl)[C@@H]1O`?
Answer: T/C (endpoint: mean survival time, dose: 0.78 mg/kg/injection, schedule: Q01DX009 (ip), vehicle: saline): 108 % of control; T/C (endpoint: mean survival time, dose: 5.5 mg/kg/injection, schedule: Q01DX009 (ip), vehicle: Klucel (hydroxypropylcellulose) (HPC)): 108 % of control; T/C [1]: 118 % of control; T/C [2]: 150 % of control; T/C (endpoint: mean survival time, dose: 66.0 mg/kg/injection, schedule: Q01DX009 (ip), vehicle: Klucel (hydroxypropylcellulose) (HPC)): 151 % of control; T/C [3]: 154 % of control and 158 % of control; T/C (endpoint: mean survival time, dose: 150.0 mg/kg/injection, schedule: Q01DX009 (ip), vehicle: Klucel (hydroxypropylcellulose) (HPC)): 104 % of control; T/C (endpoint: median survival time, dose: 4.0 mg/kg/injection, schedule: Q03HX008 (ip), vehicle: saline): 123 % of control; T/C (endpoint: median survival time, dose: 4.0 mg/kg/injection, schedule: Q03HX024 (ip), vehicle: saline): 154 % of control; T/C (endpoint: median survival time, dose: 6.25 mg/kg/injection, schedule: Q03HX016 (ip), vehicle: saline): 154 % of control; T/C (endpoint: median survival time, dose: 6.25 mg/kg/injection, schedule: Q03HX024 (ip), vehicle: saline): 189 % of control; T/C (endpoint: median survival time, dose: 8.0 mg/kg/injection, schedule: Q01DX009 (sc), vehicle: saline): 118 % of control; T/C (endpoint: median survival time, dose: 8.0 mg/kg/injection, schedule: Q03HX016 (ip), vehicle: saline): 153 % of control; T/C (endpoint: median survival time, dose: 12.5 mg/kg/injection, schedule: Q03HX016 (ip), vehicle: saline): 152 % of control; T/C (endpoint: median survival time, dose: 12.5 mg/kg/injection, schedule: Q03HX024 (ip), vehicle: saline): 170 % of control; T/C (endpoint: median survival time, dose: 16.0 mg/kg/injection, schedule: Q03HX016 (ip), vehicle: saline): 150 % of control; T/C (endpoint: median survival time, dose: 25.0 mg/kg/injection, schedule: Q01DX001 (ip), vehicle: saline): 113 % of control; T/C (endpoint: median survival time, dose: 25.0 mg/kg/injection, schedule: Q01DX009 (ip), vehicle: saline): 171 % of control; T/C (endpoint: median survival time, dose: 25.0 mg/kg/injection, schedule: Q03HX016 (ip), vehicle: saline): 160 % of control; T/C (endpoint: median survival time, dose: 25.0 mg/kg/injection, schedule: Q08DX002 (ip), vehicle: saline): 104 % of control; T/C (endpoint: median survival time, dose: 32.0 mg/kg/injection, schedule: Q01DX001 (ip), vehicle: saline): 105 % of control; T/C (endpoint: median survival time, dose: 32.0 mg/kg/injection, schedule: Q01DX001 (sc), vehicle: saline): 105 % of control; T/C (endpoint: median survival time, dose: 32.0 mg/kg/injection, schedule: Q03HX016 (ip), vehicle: saline): 150 % of control; T/C (endpoint: median survival time, dose: 32.0 mg/kg/injection, schedule: Q03HX024 (ip), vehicle: saline): 153 % of control; T/C (endpoint: median survival time, dose: 32.0 mg/kg/injection, schedule: Q04DX003 (ip), vehicle: saline): 122 % of control; T/C (endpoint: median survival time, dose: 32.0 mg/kg/injection, schedule: Q08DX002 (ip), vehicle: saline): 111 % of control; T/C (endpoint: median survival time, dose: 50.0 mg/kg/injection, schedule: Q01DX001 (ip), vehicle: saline): 113 % of control; T/C (endpoint: median survival time, dose: 50.0 mg/kg/injection, schedule: Q03HX016 (ip), vehicle: saline): 158 % of control; T/C (endpoint: median survival time, dose: 50.0 mg/kg/injection, schedule: Q08DX002 (ip), vehicle: saline): 108 % of control; T/C (endpoint: median survival time, dose: 64.0 mg/kg/injection, schedule: Q01DX001 (ip), vehicle: saline): 100 % of control; T/C (endpoint: median survival time, dose: 64.0 mg/kg/injection, schedule: Q01DX001 (sc), vehicle: saline): 106 % of control; T/C (endpoint: median survival time, dose: 64.0 mg/kg/injection, schedule: Q01DX009 (oral), vehicle: saline): 115 % of control; T/C (endpoint: median survival time, dose: 64.0 mg/kg/injection, schedule: Q01DX009 (sc), vehicle: saline): 151 % of control; T/C (endpoint: median survival time, dose: 64.0 mg/kg/injection, schedule: Q03HX024 (ip), vehicle: saline): 153 % of control; T/C (endpoint: median survival time, dose: 64.0 mg/kg/injection, schedule: Q04DX003 (ip), vehicle: saline): 122 % of control; T/C (endpoint: median survival time, dose: 64.0 mg/kg/injection, schedule: Q08DX002 (ip), vehicle: saline): 113 % of control; T/C (endpoint: median survival time, dose: 100.0 mg/kg/injection, schedule: Q01DX001 (ip), vehicle: saline): 104 % of control; T/C (endpoint: median survival time, dose: 100.0 mg/kg/injection, schedule: Q01DX009 (ip), vehicle: saline): 169 % of control; T/C (endpoint: median survival time, dose: 100.0 mg/kg/injection, schedule: Q03HX016 (ip), vehicle: saline): 152 % of control; T/C (endpoint: median survival time, dose: 100.0 mg/kg/injection, schedule: Q03HX024 (ip), vehicle: saline): 202 % of control; T/C (endpoint: median survival time, dose: 100.0 mg/kg/injection, schedule: Q04DX003 (ip), vehicle: saline): 122 % of control; T/C (endpoint: median survival time, dose: 100.0 mg/kg/injection, schedule: Q08DX002 (ip), vehicle: saline): 114 % of control; T/C (endpoint: median survival time, dose: 128.0 mg/kg/injection, schedule: Q01DX001 (ip), vehicle: saline): 108 % of control; T/C (endpoint: median survival time, dose: 128.0 mg/kg/injection, schedule: Q01DX001 (sc), vehicle: saline): 104 % of control; T/C (endpoint: median survival time, dose: 128.0 mg/kg/injection, schedule: Q01DX009 (ip), vehicle: saline): 151 % of control; T/C (endpoint: median survival time, dose: 128.0 mg/kg/injection, schedule: Q01DX009 (sc), vehicle: saline): 163 % of control; T/C (endpoint: median survival time, dose: 128.0 mg/kg/injection, schedule: Q03HX024 (ip), vehicle: saline): 152 % of control; T/C (endpoint: median survival time, dose: 128.0 mg/kg/injection, schedule: Q04DX003 (ip), vehicle: saline): 108 % of control; T/C (endpoint: median survival time, dose: 128.0 mg/kg/injection, schedule: Q08DX002 (ip), vehicle: saline): 102 % of control; T/C (endpoint: median survival time, dose: 200.0 mg/kg/injection, schedule: Q01DX001 (ip), vehicle: saline): 108 % of control; T/C (endpoint: median survival time, dose: 200.0 mg/kg/injection, schedule: Q01DX009 (ip), vehicle: saline): 104 % of control; T/C (endpoint: median survival time, dose: 200.0 mg/kg/injection, schedule: Q08DX002 (ip), vehicle: saline): 104 % of control; T/C (endpoint: median survival time, dose: 256.0 mg/kg/injection, schedule: Q01DX001 (ip), vehicle: saline): 104 % of control; T/C (endpoint: median survival time, dose: 256.0 mg/kg/injection, schedule: Q01DX001 (oral), vehicle: saline): 108 % of control and 109 % of control; T/C (endpoint: median survival time, dose: 256.0 mg/kg/injection, schedule: Q01DX001 (sc), vehicle: saline): 104 % of control; T/C (endpoint: median survival time, dose: 256.0 mg/kg/injection, schedule: Q01DX009 (ip), vehicle: saline): 153 % of control; T/C (endpoint: median survival time, dose: 256.0 mg/kg/injection, schedule: Q01DX009 (oral), vehicle: saline): 115 % of control and 90 % of control; T/C (endpoint: median survival time, dose: 256.0 mg/kg/injection, schedule: Q08DX002 (ip), vehicle: saline): 99 % of control; T/C (endpoint: median survival time, dose: 400.0 mg/kg/injection, schedule: Q01DX001 (ip), vehicle: saline): 117 % of control; T/C (endpoint: median survival time, dose: 400.0 mg/kg/injection, schedule: Q08DX002 (ip), vehicle: saline): 122 % of control; T/C (endpoint: median survival time, dose: 512.0 mg/kg/injection, schedule: Q01DX001 (ip), vehicle: saline): 105 % of control; T/C (endpoint: median survival time, dose: 512.0 mg/kg/injection, schedule: Q01DX001 (oral), vehicle: saline): 115 % of control and 118 % of control; T/C (endpoint: median survival time, dose: 512.0 mg/kg/injection, schedule: Q01DX001 (sc), vehicle: saline): 107 % of control; T/C (endpoint: median survival time, dose: 512.0 mg/kg/injection, schedule: Q01DX009 (oral), vehicle: saline): 87 % of control; T/C (endpoint: median survival time, dose: 512.0 mg/kg/injection, schedule: Q08DX002 (ip), vehicle: saline): 102 % of control; T/C (endpoint: median survival time, dose: 1024.0 mg/kg/injection, schedule: Q01DX001 (ip), vehicle: saline): 114 % of control; T/C (endpoint: median survival time, dose: 1024.0 mg/kg/injection, schedule: Q01DX001 (oral), vehicle: saline): 114 % of control; T/C (endpoint: median survival time, dose: 1024.0 mg/kg/injection, schedule: Q01DX001 (sc), vehicle: saline): 109 % of control; T/C (endpoint: median survival time, dose: 1024.0 mg/kg/injection, schedule: Q08DX002 (ip), vehicle: saline): 118 % of control

Question: How did the T/C (endpoint: mean survival time, dose: 100.0 mg/kg/injection, schedule: Q04DX002 (ip), vehicle: Klucel (hydroxypropylcellulose) (HPC)) turn out when `O=C(COc1ccc(Cl)cc1Cl)OCCCl` was run?
Answer: 94 % of control

Question: What about the T/C (endpoint: mean survival time, dose: 200.0 mg/kg/injection, schedule: Q04DX002 (ip), vehicle: Klucel (hydroxypropylcellulose) (HPC)) of the same compound?
Answer: 105 % of control

Question: For `Cc1ccc2c(c1)nc1c3ccccc3nc(-c3ccccc3N)n21`, which T/C (endpoint: mean survival time, dose: 100.0 mg/kg/injection, schedule: Q01DX009 (ip), vehicle: saline with Tween-80) is on record?
Answer: 89 % of control

Question: What about the T/C (endpoint: mean survival time, dose: 100.0 mg/kg/injection, schedule: Q04DX003 (ip), vehicle: saline with Tween-80) of the same compound?
Answer: 104 % of control

Question: What about the T/C (endpoint: mean survival time, dose: 200.0 mg/kg/injection, schedule: Q01DX009 (ip), vehicle: saline with Tween-80) of the same compound?
Answer: 87 % of control

Question: What about the T/C (endpoint: mean survival time, dose: 200.0 mg/kg/injection, schedule: Q04DX003 (ip), vehicle: saline with Tween-80) of the same compound?
Answer: 91 % of control

Question: And the T/C (endpoint: mean survival time, dose: 400.0 mg/kg/injection, schedule: Q04DX003 (ip), vehicle: saline with Tween-80)?
Answer: 104 % of control

Question: What does the source list for `O=CNc1cc(Cl)cc(Cl)c1`?
Answer: T/C [1]: 97 % of control; T/C [2]: 94 % of control; T/C [3]: 114 % of control

From PubChem BioAssay AID248 (DTP/NCI, 2004)
